Laboratory results: patent US5789434A, “Derivatives of substituted 4-biarylbutyric acid as matrix metalloprotease inhibitors” (priority 1995, dated 1998)
Read-outs that look alike come from different tables or passages of the source.

How the values were obtained:
MMP-3 = target: T1, MMP-3 (Homo sapiens, UniProt P08254); test: Primary Thiopeptilide MMP-3 Inhibition Assay; format: biochemical; conditions: for IC50: 13 nM stromelysin, x (n) = average of n determinations; for inhibition at 5 µM: read-out: MMP-3 Thiopep. % inhibition
T1 construct: Truncated Prostromelysin-257 was expressed in a soluble form in E.coli; made in house; host or cells: E. coli

MMP-9 = target: T2, MMP-9 (Homo sapiens, UniProt P14780); test: Thiopeptilide MMP-9 Inhibition Assay; format: biochemical; conditions: for inhibition at 5 µM: read-out: MMP-9: Thiopep. % inhibition
T2 construct: from tissue; host or cells: human polymorphonuclear leukocytes (PMN) from whole blood (New York Blood Center), PMA-stimulated supernatant

[1] = pH 6.5, read-out: MMP-3 Thiopep. IC50
[2] = pH 6.5, x (n) = average of n determinations, read-out: MMP-9: Thiopep. IC50

T2 sequence (P14780 107-707 limits assumed): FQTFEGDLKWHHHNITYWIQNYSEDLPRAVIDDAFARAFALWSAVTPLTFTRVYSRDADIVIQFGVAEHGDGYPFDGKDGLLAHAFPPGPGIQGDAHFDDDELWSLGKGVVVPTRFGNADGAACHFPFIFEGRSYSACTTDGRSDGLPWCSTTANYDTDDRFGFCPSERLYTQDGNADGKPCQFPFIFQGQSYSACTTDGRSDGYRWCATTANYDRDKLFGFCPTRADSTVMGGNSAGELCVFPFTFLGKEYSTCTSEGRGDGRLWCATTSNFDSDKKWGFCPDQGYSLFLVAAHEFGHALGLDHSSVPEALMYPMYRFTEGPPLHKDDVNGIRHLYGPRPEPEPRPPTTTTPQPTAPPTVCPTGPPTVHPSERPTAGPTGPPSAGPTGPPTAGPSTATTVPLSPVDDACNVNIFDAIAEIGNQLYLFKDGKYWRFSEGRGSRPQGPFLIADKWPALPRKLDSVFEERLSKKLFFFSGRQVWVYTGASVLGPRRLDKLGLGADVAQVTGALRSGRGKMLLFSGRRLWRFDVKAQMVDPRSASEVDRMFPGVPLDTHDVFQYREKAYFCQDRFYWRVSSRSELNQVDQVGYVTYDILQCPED
T1 sequence (P08254 100-274 limits assumed): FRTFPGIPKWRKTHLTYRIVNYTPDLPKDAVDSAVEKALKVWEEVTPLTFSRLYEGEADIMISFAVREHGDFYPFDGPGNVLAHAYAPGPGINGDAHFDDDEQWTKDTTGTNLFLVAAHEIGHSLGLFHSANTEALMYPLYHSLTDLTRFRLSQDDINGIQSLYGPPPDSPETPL

| IC50 (MMP-3; [1]) | inhibition at 5 µM (MMP-9) | IC50 (MMP-9; [2]) | Compound | other results |
| --- | --- | --- | --- | --- |
| 2300 nM | 38% | – | O=C(CC(CCCc1ccccc1)C(=O)O)c1ccc(-c2ccc(F)c(Cl)c2)cc1 (stereo not drawn) [Example 74, [1,1'-Biphenyl]-4-butanoic acid, 3'-chloro-4'-fluoro-γ-oxo-α-(3-phenylpropyl)-] | – |
| – | 7% | – | O=C(CC(CCCc1ccccc1)C(=O)O)c1ccc(-c2ccc(Cl)cc2Cl)cc1 (stereo not drawn) [Example 77, [1,1'-Biphenyl]-4-butanoic acid, 2',4'-dichloro-γ-oxo-α-(3-phenylpropyl)-] | inhibition at 5 µM (MMP-3): 24% |
| – | 9% | – | O=C(CC(CCCc1ccccc1)C(=O)O)c1ccc(-c2cc(C(F)(F)F)cc(C(F)(F)F)c2)cc1 (stereo not drawn) [Example 79, [1,1'-Biphenyl]-4-butanoic acid, γ-oxo-α-(3-phenylpropyl)-3',5'-bis(trifluoromethyl)-] | inhibition at 5 µM (MMP-3): 12% |
| – | 12% | – | O=C(CC(CCCc1ccccc1)C(=O)O)c1ccc(-c2cccc(C(F)(F)F)c2)cc1 (stereo not drawn) [Example 81, [1,1'-Biphenyl]-4-butanoic acid, γ-oxo-α-(3-phenylpropyl)-3'-(trifluoromethyl)-] | inhibition at 5 µM (MMP-3): 30% |
| 150 nM | – | 100 nM | CCCOc1ccc(-c2ccc(C(=O)CC(CCCc3ccccc3)C(=O)O)cc2)cc1 (stereo not drawn) [Example 84, [1,1'-Biphenyl]-4-butanoic acid, γ-oxo-α-(3-phenylpropyl)-4'-propoxy-] | – |
| 174 nM | – | 700 nM | CC(C)Oc1ccc(-c2ccc(C(=O)CC(CCCc3ccccc3)C(=O)O)cc2)cc1 (stereo not drawn) [Example 91, [1,1'-Biphenyl]-4-butanoic acid, 4'-(1-methylethoxy)-γ-oxo-α-(3-phenylpropyl)-] | – |
| – | 26% | – | CCCCCCCOc1ccc(-c2ccc(C(=O)CC(CCCc3ccccc3)C(=O)O)cc2)cc1 (stereo not drawn) [Example 92, [1,1'-Biphenyl]-4-butanoic acid, 4'-(heptyloxy)-γ-oxo-α-(3-phenylpropyl)-] | inhibition at 5 µM (MMP-3): 60% |
| 440 nM | – | 2200 nM | CCCC(CC(=O)c1ccc(-c2ccc(Cl)cc2)cc1)C(=O)O (stereo not drawn) [Example 118, [1,1'-Biphenyl]-4-butanoic acid, 4'-chloro-γ-oxo-α-propyl-] | – |
| 380 nM | 60% | – | CCCCC(CC(=O)c1ccc(-c2ccc(Cl)cc2)cc1)C(=O)O (stereo not drawn) [Example 120, [1,1'-Biphenyl]-4-butanoic acid, α-butyl-4'-chloro-γ-oxo-] | – |
| 1000 nM | 45% | – | C#CCC(CC(=O)c1ccc(-c2ccc(Cl)cc2)cc1)C(=O)O (stereo not drawn) [Example 121, [1,1'-Biphenyl]-4-butanoic acid, 4'-chloro-γ-oxo-α-2-propynyl-] | – |
| 180 nM | 28% | – | O=C(CC(CCc1ccccc1)C(=O)O)c1ccc(-c2ccc([N+](=O)[O-])cc2)cc1 (stereo not drawn) [Example 124, [1,1'-Biphenyl]-4-butanoic acid, 4'-nitro-γ-oxo-α-(2-phenylethyl)-] | – |
| 105 nM | – | 1800 nM | N#Cc1ccc(-c2ccc(C(=O)CC(CCc3ccccc3)C(=O)O)cc2)cc1 (stereo not drawn) [Example 125, [1,1'-Biphenyl]-4-butanoic acid, 4'-cyano-γ-oxo-α-(2-phenylethyl)-] | – |
| 112 nM | – | 2600 nM | O=C(CC(CCc1ccccc1)C(=O)O)c1ccc(-c2ccc(Cl)cc2)cc1 (stereo not drawn) [Example 132, [1,1'-Biphenyl]-4-butanoic acid, 4'-chloro-γ-oxo-α-(2-phenylethyl)-] | – |
| 1600 nM | 50% | – | Nc1ccc(-c2ccc(C(=O)CC(CCc3ccccc3)C(=O)O)cc2)cc1 (stereo not drawn) [Example 136, [1,1'-Biphenyl]-4-butanoic acid, 4'-amino-γ-oxo-α-(2-phenylethyl)-] | – |
| 160 nM | – | 200 nM | O=C(CC(CCCCc1ccccc1)C(=O)O)c1ccc(-c2ccc(Cl)cc2)cc1 (stereo not drawn) [Example 179, [1,1'-Biphenyl]-4-butanoic acid, 4'-chloro-γ-oxo-α-(4-phenylbutyl)-] | – |
| 270 nM | – | 360 nM | O=C(CC(CCCCCc1ccccc1)C(=O)O)c1ccc(-c2ccc(Cl)cc2)cc1 (stereo not drawn) [Example 180, [1,1'-Biphenyl]-4-butanoic acid, 4'-chloro-γ-oxo-α-(5-phenylpentyl)-] | – |
| 330 nM | – | 290 nM | O=C(CC(CCCCCCc1ccccc1)C(=O)O)c1ccc(-c2ccc(Cl)cc2)cc1 (stereo not drawn) [Example 181, [1,1'-Biphenyl]-4-butanoic acid, 4'-chloro-γ-oxo-α-(6-phenylhexyl)-] | – |
| 270 nM | – | 710 nM | O=C(CC(C/C=C/c1ccccc1)C(=O)O)c1ccc(-c2ccc(Cl)cc2)cc1 (stereo not drawn) [Example 183, [1,1'-Biphenyl]-4-butanoic acid, 4'-chloro-γ-oxo-α-(3-phenyl-2-propenyl)-, (E)-] | – |
| 280 nM | 41% | – | Cc1ccc(CCCC(CC(=O)c2ccc(-c3ccc(Cl)cc3)cc2)C(=O)O)cc1 (stereo not drawn) [Example 184, [1,1'-Biphenyl]-4-butanoic acid, 4'-chloro-α[3-(4-methylphenyl)propyl]-γ-oxo-] | – |
| 757 nM | – | 1500 nM | COc1ccc(CCC(CC(=O)c2ccc(-c3ccc(Cl)cc3)cc2)C(=O)O)cc1 (stereo not drawn) [Example 187, [1,1'-Biphenyl]-4-butanoic acid, 4'-chloro-α-[2-(4-methoxyphenyl)ethyl]-γ-oxo-] | – |
| 151 nM | – | 1300 nM | COc1cccc(CCC(CC(=O)c2ccc(-c3ccc(Cl)cc3)cc2)C(=O)O)c1 (stereo not drawn) [Example 188, [1,1'-Biphenyl]-4-butanoic acid, 4'-chloro-α-[2-(3-methoxyphenyl)ethyl]-γ-oxo-] | – |

Second part, the compound before the results:

| Compound | IC50 (MMP-3; [1]) | inhibition at 5 µM (MMP-9) | IC50 (MMP-9; [2]) | other results |
| --- | --- | --- | --- | --- |
| CCOc1ccc(-c2ccc(C(=O)CC(CCCc3ccccc3)C(=O)O)cc2)cc1 (stereo not drawn) [Example 75, [1,1'-Biphenyl]-4-butanoic acid, 4'-ethoxy-γ-oxo-α-(3-phenylpropyl)-] | 78 nM | – | 82 nM | – |
| O=C(CC(CCCc1ccccc1)C(=O)O)c1ccc(-c2ccsc2)cc1 (stereo not drawn) [Example 76, Benzenepentanoic acid, α-[2-oxo-2-[4-(3-thienyl)phenyl]ethyl]-] | 1000 nM | – | 1800 nM | – |
| O=Cc1ccc(-c2ccc(C(=O)CC(CCCc3ccccc3)C(=O)O)cc2)cc1 (stereo not drawn) [Example 78, [1,1'-Biphenyl]-4-butanoic acid, 4'-formyl-γ-oxo-α-(3-phenylpropyl)-] | 310 nM | – | 1200 nM | – |
| O=C(CC(CCCc1ccccc1)C(=O)O)c1ccc(-c2cccs2)cc1 (stereo not drawn) [Example 80, Benzenepentanoic acid, α-[2-oxo-2-[4-(2-thienyl)phenyl]ethyl]-] | 470 nM | – | 800 nM | – |
| O=Cc1ccccc1-c1ccc(C(=O)CC(CCCc2ccccc2)C(=O)O)cc1 (stereo not drawn) [Example 82, [1,1'-Biphenyl]-4-butanoic acid, 2'-formyl-γ-oxo-α-(3-phenylpropyl)-] | – | 9% | – | inhibition at 5 µM (MMP-3): 23% |
| O=C(CC(CCCc1ccccc1)C(=O)O)c1ccc(-c2ccc(O)cc2)cc1 (stereo not drawn) [Example 83, [1,1'-Biphenyl]-4-butanoic acid, 4'-hydroxy-γ-oxo-α-(3-phenylpropyl)-] | 720 nM | – | 1400 nM | – |
| CCCCCCOc1ccc(-c2ccc(C(=O)CC(CCCc3ccccc3)C(=O)O)cc2)cc1 (stereo not drawn) [Example 88, [1,1'-Biphenyl]-4-butanoic acid, 4'-(hexyloxy)γ-oxo-α-(3-phenylpropyl)-] | 168 nM | 30% | – | – |
| CCCCOc1ccc(-c2ccc(C(=O)CC(CCCc3ccccc3)C(=O)O)cc2)cc1 (stereo not drawn) [Example 89, [1,1'-Biphenyl]-4-butanoic acid, 4'-butoxy-γ-oxo-α-(3-phenylpropyl)-] | 111 nM | – | 480 nM | – |
| O=C(CC(CCCc1ccccc1)C(=O)O)c1ccc(-c2ccc(OCCCc3ccccc3)cc2)cc1 (stereo not drawn) [Example 90, [1,1'-Biphenyl]-4-butanoic acid, γ-oxo-4'-(3-phenylpropoxy)-α-(3-phenylpropyl)-] | – | 11% | – | inhibition at 5 µM (MMP-3): 36% |
| CCC(CC(=O)c1ccc(-c2ccc(Cl)cc2)cc1)C(=O)O (stereo not drawn) [Example 117, [1,1'-Biphenyl]-4-butanoic acid, 4'-chloro-α-ethyl-γ-oxo-] | 590 nM | – | 3800 nM | – |
| C=CCC(CC(=O)c1ccc(-c2ccc(Cl)cc2)cc1)C(=O)O (stereo not drawn) [Example 119, [1,1'-Biphenyl]-4-butanoic acid, 4'-chloro-γ-oxo-α-2-propenyl-] | 760 nM | – | 1800 nM | – |
| C[Si](C)(C)CC(CC(=O)c1ccc(-c2ccc(Cl)cc2)cc1)C(=O)O (stereo not drawn) [Example 133, [1,1'-Biphenyl]-4-butanoic acid, 4'-chloro-γ-oxo-α-[(trimethylsilyl)methyl]-] | – | – | – | IC50 (MMP-3; MMP-3 Thiopep. IC50, pH 6.5): 640 nM; IC50 (MMP-9): 10000 nM |
| O=C(C[C@H](CCCc1ccccc1)C(=O)O)c1ccc(-c2ccc(Br)cc2)cc1 [Example 178, [1,1'-Biphenyl]-4-butanoic acid, 4'-bromo-γ-oxo-α-(3-phenylpropyl)-, (S)-] | 150 nM | – | 240 nM | – |
| O=C(CC(Cc1ccc(-c2ccccc2)cc1)C(=O)O)c1ccc(-c2ccc(Cl)cc2)cc1 (stereo not drawn) [Example 182, [1,1'-Biphenyl]-4-butanoic acid, α-([1,1'-biphenyl]-4-ylmethyl)-4'-chloro-γ-oxo-] | – | 17% | – | inhibition at 5 µM (MMP-3): 7% |
| O=C(CC(CCCc1ccc(Cl)cc1)C(=O)O)c1ccc(-c2ccc(Cl)cc2)cc1 (stereo not drawn) [Example 185, [1,1'-Biphenyl]-4-butanoic acid, 4'-chloro-α[3-(4-chlorophenyl)propyl]-γ-oxo-] | 220 nM | 31% | – | – |
| COc1ccc(CCCC(CC(=O)c2ccc(-c3ccc(Cl)cc3)cc2)C(=O)O)cc1 (stereo not drawn) [Example 186, [1,1'-Biphenyl]-4-butanoic acid, 4'-chloro-α[3-(4-methoxyphenyl)propyl]-γ-oxo-] | 170 nM | – | 383 nM | – |
